Reference: article PMC8466373, “Plant-Derived and Dietary Hydroxybenzoic Acids—A Comprehensive Study of Structural, Anti-/Pro-Oxidant, Lipophilic, Antimicrobial, and Cytotoxic Activity in MDA-MB-231 and MCF-7 Cell Lines” (Nutrients, 2021)
≈ marks a conversion by molar mass, not a printed value. Read-outs that look alike come from different tables or passages of the source. Marks after values point to notes of the source that are not given here.

Columns and labels:
[1] = tested on: Candida albicans (PCM 2566-FY); assay: MIC by serial dilution in agar medium; format: cell-based; settings: read-out: MIC
Protocol: (§1) The following bacterial strains were used in this study: Escherichia coli (PCM 2857), Pseudomonas aeruginosa (PCM 2720), Bacillus subtilis (PCM 2850), Staphylococcus aureus (PCM 2267), Salmonella enteritidis (NCTC 4776), and Candida albicans (PCM 2566-FY). The microbial strains were bought from the Polish Collection of Microorganisms (Wroclaw, Poland) or the American Type Culture Collection. Bacteria (0.1 mL of the reconstituted suspension) were seeded onto sterile Mueller–Hinton agar plates (Biomaxima), to which previously suitable amounts of the tested compounds were added to give the desired concentration.
(§2) The MIC (minimal inhibitory concentration) was determined by serial dilution of the tested compound in an agar medium, to which the appropriate inoculum of microorganisms was then added and incubated. Escherichia coli, Pseudomonas aeruginosa, Staphylococcus aureus, Bacillus subtilis, Salmonella enteritidis, and Candida albicans were grown overnight and then resuspended in physiological saline to an optical density at 600 nm (OD = 600) of 0.60, corresponding to 5.0 × 10^8 CFU/mL. Bacteria (0.1 mL of the reconstituted suspension) were seeded onto sterile Mueller–Hinton agar plates, to which previously suitable amounts of the tested compounds were added to reach the desired concentration. Tested chemicals were dissolved in DMSO solution. Negative controls were agar plates, to which DMSO was added, while positive controls were plates with gentamycin (in the case of bacteria) or flucanozole (in the case of fungi). The plates were incubated at 37 °C for 24 h. The lowest concentration without visible bacterial growth was determined as the MIC.

[2] = tested on: Pseudomonas aeruginosa (PCM 2720); assay: MIC by serial dilution in agar medium; format: cell-based; settings: read-out: MIC
Protocol: as §1, §2

[3] = tested on: Bacillus subtilis (PCM 2850); assay: MIC by serial dilution in agar medium; format: cell-based; settings: read-out: MIC
Protocol: as §1, §2

[4] = tested on: Escherichia coli (PCM 2857); assay: MIC by serial dilution in agar medium; format: cell-based; settings: read-out: MIC
Protocol: as §1, §2

[5] = tested on: Staphylococcus aureus (PCM 2267); assay: MIC by serial dilution in agar medium; format: cell-based; settings: read-out: MIC
Protocol: as §1, §2

[6] = cited from earlier work
[7] = Cytotoxicity, neutral red (NR) assay; format: cell-based, human; settings: human, 48 h treatment, neutral red assay
Protocol: Briefly, MCF-7 cells were cultured in EMEM (Biological Industries, Israel) medium supplemented with 10% fetal calf serum (Gibco). MDA-MB-231 cells were cultured in Leibovitz‘s L15 (Biological Industries, Beit HaEmek, Israel) medium supplemented with 10% fetal calf serum (Gibco). The MCF-7 cells were incubated in a 5% CO2 atmosphere at 37 °C, whereas the MDA-231 cells were incubated in a 100% air atmosphere at 37 °C.
Cytotoxicity evaluation was conducted to assess the impact of hydroxybenzoic acids on the proliferation of MCF-7 and MDA-MB-231 cells, which was measured via neutral red (NR) assay. In brief, cells were seeded in 96-well microplates (TPP, Switzerland) at a density of 2 × 10^4 cells/well in 100 μL of culture medium. At least three independent experiments in six replicate wells were conducted per concentration. Twenty-four hours after cell seeding, cells were treated with increasing concentrations of hydroxybenzoic acids (0.02–5 mM) for forty-eight hours. After treatment, cells were incubated for 3 h at 37 °C with 100 µL of neutral red solution (stock solution of NR) (Sigma-Aldrich), and then 5 mg/mL of PBS was diluted 1:100 in cell culture medium, incubated for 12 h at 37 °C, and centrifuged to remove any undissolved NR powder. […] After 15 min of gentle shaking, optical density was read at 540 nm with an Infinite M200 plate reader spectrophotometer (Tecan, Austria).

[8] = C = 0,001 mg/mL, λ = 593 nm, t = 30 min; cited from earlier work
ABTS assay = format: biochemical; settings: 50 μM, methanolic solutions, 7 min of reaction time
Protocol: ABTS assay was conducted according to the procedure of Re et al.. […] The absorbance of the solutions was measured with a UV–Vis spectrophotometer at 734 nm against methanol (the blank). The ability to scavenge ABTS^•+ cation radicals was expressed as the %I of ABTS^•+ and calculated according to the aforementioned equation.

[9] = tested on: Salmonella enteritidis (NCTC 4776); assay: MIC by serial dilution in agar medium; format: cell-based; settings: Salmonella enterica; Salmonella enteritidis; read-out: MIC
Protocol: The following bacterial strains were used in this study: Escherichia coli (PCM 2857), Pseudomonas aeruginosa (PCM 2720), Bacillus subtilis (PCM 2850), Staphylococcus aureus (PCM 2267), Salmonella enteritidis (NCTC 4776), and Candida albicans (PCM 2566-FY). The microbial strains were bought from the Polish Collection of Microorganisms (Wroclaw, Poland) or the American Type Culture Collection.
as §2

[10] = ref 102; cited from earlier work
[11] = CABTS = 7 mM, t = 6 min, ref 73; read-out: ABTS, IC50; cited from earlier work
[12] = tested on: E. coli, P. aeruginosa, S. aureus, B. subtilis, S. enteritidis, and C. albicans; assay: MIC, stated for all tested strains together; format: cell-based; settings: all of the tested strains
Protocol: as §1, §2

[13] = Lipophilicity via RP-HPLC; format: physicochemical
Protocol: The analyses were carried out on the following chromatographic columns: RP-18e Purospher STAR (C18), 150 mm × 4.0 mm, 5 µm, (Merck, Darmstadt, Germany); RP-8e Purospher STAR (C8), 150 mm × 4.6 mm, 5 µm, (Merck, Darmstadt, Germany); Zorbax Eclipse XDB-CN (CN), 150 mm × 4.6 mm, 5 µm, (Agilent Technologies, Santa Clara, CA, USA); Nucleosil Phenyl (PHE), 250 mm × 4.6 mm, 7 µm, (Supelco, Bellefonte, PA, USA); and Regis Rexchrom IAM.PC.DD.2 (IAM), 100 mm × 4.6 mm, 10 µm, (Regis Technologies Inc., Morton Grave, IL, USA). The experimental conditions and the calculations were as described in [46].

[14] = FRAP assay (ferric-reducing antioxidant power); format: biochemical; design: key: (-): Negative values were obtained for these acids; settings: concentration of 50 μM, methanolic solutions
Protocol: FRAP assay was carried out as described in [42]. […] After 8 min of incubation at 23 °C, the absorbance at 595 nm was measured against the blank (containing 0.4 mL of methanol instead of the sample). Ferric-reducing antioxidant activity was expressed as Fe(II) ion equivalents (μM) using the calibration curve obtained for FeSO4 (the standard curve equation: y = 3.4303x − 0.1058; R^2 = 0.9984).

O=C(O)c1ccc(O)cc1O [2,4-DHB, 2,4-Dihydroxybenzoic acid]
MIC [1]: 2000 µg/mL (≈ 13 mM) | MIC [2]: 2000 µg/mL (≈ 13 mM) | MIC [3]: 2000 µg/mL (≈ 13 mM) | MIC [4]: 2000 µg/mL (≈ 13 mM) | MIC [5]: 2000 µg/mL (≈ 13 mM) | pKaexp. ([6]; at 25 °C): 3.11 | pKaexp. ([6]; ref 104): 3.11 | pKaexp. ([6]; ref 105): 3.1 | IC50 at 48 h ([7]; read-out: Cytotoxicity (mM) in Cell Line MCF-7, IC50): > 5 mM | IC50 at 48 h ([7]; read-out: Cytotoxicity (mM) in Cell Line MDA-MB-231, IC50): 4.77 mM | FRAP [8]: ≈ 0.012 (C = 0,001 mg/mL), λ = 593 nm, t = 30 min) [73] μM Fe^2+ | Inhibition of ABTS•+ radicals (%I) (ABTS assay): 16.17% | MIC [9]: 2000 µg/mL (≈ 13 mM) | LogPexp. [10]: 1.63 [102] | IC50 [11]: 0.169 mM | MIC [12]: 2000 µg/mL (≈ 13 mM) | log kw ([13]; C8 column): 1.81 | ϕ0 ([13]; C8 column): 1.38 | log kw ([13]; C18 column): 2.66 | ϕ0 ([13]; C18 column): 0.57 | log kw ([13]; CN column): 2.06 | ϕ0 ([13]; CN column): 1.15 | log kw ([13]; IAM column): 1.14 | ϕ0 ([13]; IAM column): 1.00 | log kw ([13]; PHE column): 1.39 | ϕ0 ([13]; PHE column): 1.05 | FRAP [14]: (-) *
